According to US8063040B2, “Triazabenzo[E]azulene derivatives for the treatment of tumors” (Merck Patent Gesellschaft Mit Beschrankter Haftung, priority 2006, dated 2011):
Counter-ions that a name gives are not always drawn.

Test system: TGF-beta
Experiment: Elimination of TGF-beta-mediated growth inhibition in Mv1Lu cells (Crystal Violet staining)
Format: cell-based
Details: lung epithelial cell line Mv1Lu, 1 ng/ml TGF-beta, 0.5% FCS, two days, absorption at 550 nm
Procedure: In-vitro (Enzyme) Assay for Determination of the Efficacy of the Inhibitors of the Inhibition of TGF-Beta-Mediated Effects
As an example, the ability of the inhibitors to eliminate TGF-beta-mediated growth inhibition is tested.
Cells of the lung epithelial cell line Mv1Lu are sown in a defined cell density in a 96-well microtitre plate and cultivated overnight under standard conditions. Next day, the medium is replaced by medium which comprises 0.5% of FCS and 1 ng/ml of TGF-beta, and the test substances are added in defined concentrations, generally in the form of dilution series with 5-fold steps. The concentration of the solvent DMSO is constant at 0.5%. After a further two days, Crystal Violet staining of the cells is carried out. After extraction of the Crystal Violet from the fixed cells, the absorption is measured spectrophotometrically at 550 nm. It can be used as a quantitative measure of the adherent cells present and thus of the cell proliferation during the culture.

| SMILES | IC50 [µM] | IC50 (Mv1Lu, 48 h) [µM] |
| --- | --- | --- |
| Cc1cccc(-c2nnc3n2-c2ccc(O)cc2CCC3C)n1 (centres unmarked) [Compound A2, 8-hydroxy-4-methyl-1-(6-methylpyridin-2-yl)-5,6-dihydro-4H-2,3,10b-triazabenzo[e]azulene] | 0.2 | – |
| COc1ccc2c(c1)C(C)CCc1nnc(-c3cccc(C)n3)n1-2 (centres unmarked) [Compound A18, 8-Methoxy-6-methyl-1-(6-methylpyridin-2-yl)-5,6-dihydro-4H-2,3,10b-triazabenzo[e]azulene, trifluoroacetate] | – | 3.3 |
| Cc1cccc(-c2nnc3n2-c2ccc(O)cc2CCC3C)n1 (centres unmarked) [Compound A19, 8-Hydroxy-4-methyl-1-(6-methylpyridin-2-yl)-5,6-dihydro-4H-2,3,10b-triazabenzo[e]azulene] | 2.5 | – |
| Cc1cccc(-c2nnc3n2-c2ccc(Cl)cc2C(C)CC3)n1 (centres unmarked) [Compound A4, 8-chloro-6-methyl-1-(6-methylpyridin-2-yl)-5,6-dihydro-4H-2,3,10b-triazabenzo[e]azulene] | – | 9.9 |
| COc1ccc2c(c1)CCC(C)c1nnc(-c3cccc(C)n3)n1-2 (centres unmarked) [Compound A1, 8-methoxy-4-methyl-1-(6-methylpyridin-2-yl)-5,6-dihydro-4H-2,3,10b-triazabenz[e]azulene] | – | 3.9 |
